Where “and” joins values, the source holds several entries; their conditions need not be identical. Identical values can stand only once. Peptide text beside a SMILES is read from it.
System: FTH1
Experiment: FTH1 gene expression in human skeletal muscle cells (HSkMC) by qRT-PCR
Format: cell-based
Conditions: for FTH1 Fold Change at 0.625 μM / FTH1 Fold Change at 1.25 μM / FTH1 Fold Change at 2.5 μM / FTH1 Fold Change at 5 μM / FTH1 Fold Change at 10 μM: average of triplicate (SD ≤ 0.3); for FTH1 Fold Change, Average / FTH1 Fold Change (individual runs): SPH 100 μM or synthetic oligopeptide 10 μM, about 12 hours; for FTH1 Fold Change (individual runs): triplicate runs
Description: A cell line derived from human skeletal muscle was selected to assess the effect of SPH and oligopeptides on gene expression. HSkMC (PCS-950-010) obtained from ATCC (Manassas, VA) were propagated in Mesenchymal Stem Cell Basal Medium (ATCC) reduced serum medium supplemented with Primary Skeletal Cell Muscle Growth Kit (ATCC) that contains L-Glutamine (10 mM), Dexamethasone ([…]), rh epidermal growth factor (5 ng/ml), rh FGF-b (5 ng/ml), rh Insulin (25 μg/mL), and fetal bovine serum (4%), on 100 mm cell culture dishes. For this assay, the HSkMC cells were seeded in 24 well plates at a cell density of 1×10^4 cells/cm^2 and maintained at 37° C. in a humidified 5% CO2 atmosphere. […]
Total RNA was extracted using the UPzol reagent for the cell pellets, followed by a DNAse treatment (DNAse TURBO), using the manufacturer's protocols. Complementary DNA (cDNA) was synthesized with the High Capacity cDNA Reverse Transcription Kit (Applied Biosystems) using random hexamers. Gene expression levels were measured by qRT-PCR.
1 μl of cDNA corresponding to 50 ng of reverse transcribed RNA was amplified by Qpcr (QuantStudio™ 6 Flex Real-Time PCR System), using the TaqMan™ Universal PCR Master Mix (Catalog No. 4304437) and a TaqMan™ assay (Roche Molecular Systems, Inc., Pleasanton, CA).
FTH1 gene expression was estimated relative to expression of the housekeeping gene, beta-actin (ACTB), following the standard formula: […]
2-ΔCt. TaqMan™ probe IDs used were: (i) FTH1, Hs01694011_s1; and (ii) ACTB, Hs01060665_g1. All experiments were run in triplicate.

SMILES	FTH1 Fold Change at 0.625 μM [fold]	FTH1 Fold Change at 1.25 μM [fold]	FTH1 Fold Change at 2.5 μM [fold]	FTH1 Fold Change at 5 μM [fold]	FTH1 Fold Change at 10 μM [fold]	FTH1 Fold Change, Average [fold]	FTH1 Fold Change (individual runs)
CC(C)C[C@H](NC(=O)[C@H](CCC(=O)O)NC(=O)CNC(=O)[C@H](CO)NC(=O)[C@H](CCC(=O)O)NC(=O)[C@H](CCC(=O)O)NC(=O)[C@@H](N)CCCNC(=N)N)C(=O)O [FT-008, REESGEL] (H-REESGEL-OH)	1.1	1.0	2.1	2.7	3.8	3.6	3.9 fold and 3.3 fold and 3.7 fold
CSCC[C@H](NC(=O)[C@@H]1CCCN1C(=O)[C@H](CCCCN)NC(=O)[C@H](CC(=O)O)NC(=O)[C@H](CO)NC(=O)[C@H](CCC(=O)O)NC(=O)[C@H](CCC(=O)O)NC(=O)[C@@H](N)CCCNC(=N)N)C(=O)N[C@@H](Cc1ccc(O)cc1)C(=O)O [FT-006, REESDKPMY] (H-REESDKPMY-OH)	1.3	2.2	3.5	4.2	4.9	4.7	4.5 fold and 4.7 fold and 4.9 fold
N=C(N)NCCC[C@H](NC(=O)[C@@H]1CCCN1)C(=O)N[C@@H](CCC(=O)O)C(=O)N[C@@H](CCC(=O)O)C(=O)N[C@@H](CO)C(=O)N[C@@H](CC(=O)O)C(=O)N[C@@H](CCCCN)C(=O)N1CCC[C@H]1C(=O)O [FT-007, PREESDKP] (H-PREESDKP-OH)	1.1	1.0	1.1	1.9	2.8	2.6	2.5 fold and 2.6 fold (2×)

From patent publication US20250101061A1, “UPREGULATION OF FERRITIN HEAVY CHAIN 1 EXPRESSION” (HBC Immunology Inc., priority 2022, published 2025)
